# Test results as given in patent publication US4083994A, “Choleretics” (Hisamitsu Pharmaceutical Co., Inc., priority 1975, dated 1978).
# How the values were obtained:
# [1] = Acute toxicity test in rats; parameters: species or system male rats of Wistar strain; details: rat, in vivo, oral, parentheses: 95% confidence limit
# Procedure: (§1) The test drugs were suspended in 5% gum arabic aqueous solution to make 50 mg/ml, and given orally male mice of ddY strain weighing 18-22 g and male rats of Wistar strain weighing 95-120 g. The LD50 values were calculated from the mortality of the animals that ensued during the 72 hours following the drug administration
# [2] = test system: sleeping time induced by hexobarbital; assay: Effects on the sleeping time induced by hexobarbital (metabolism function of the liver); assay type: in vivo, male rats of Wistar strain; details: rats, 250 mg/kg oral once daily for a week; hexobarbital sodium 100 mg/kg i.p.; control 17.1 ± 0.9
# Procedure: About 500 mg of the test drugs were weighed accurately and suspended in 2 ml of 5% gum arabic aqueous solution. Ten male rats of Wistar strain were used per group and given orally the test drugs prepared above in a volume of 0.1 ml/100 g body weight (equivalent to 250 mg/kg), once daily (at 8.30-9.00 a.m.), for a week. The animals were fasted overnight after the last administration of the test drugs. Subsequently, 10% hexobarbital sodium aqueous solution was injected intraperitoneally in a volume of 0.1 ml (equivalent to 100 mg/kg) and the sleeping time was measured. The animals were regarded as sleeping when the loss of righting reflex persist for more than 30 seconds.
# [3] = Acute toxicity test in mice; details: mouse, in vivo, oral, parentheses: 95% confidence limit
# Procedure: as §1
# bile secretion [4] = assay: Bile secretion test in dogs; assay type: in vivo, male mongrel dogs; details: dog, into duodenum, 310 mg/kg, volume in 1 h before administration = 100%
# Procedure: Male mongrel dogs weighing approximately 8 kg were anesthetized with intravenous injection of […] of pentobarbital and further with subcutaneous injection of urethane at a dose of 1.0 g/kg and laparotomized. One canula was inserted into the common bile duct and directed to the liver for collection of the bile, and the other canula was inserted into the duodenum for the drug administration. The cholecystic duct was ligated and the gallbladder bile was aspirated with an injection syringe. The operation was finished by suture of the peritoneum. The bile was collected for one hour from 30 minutes after the operation. The animals were given the test drugs, each 50 mg of which was suspended in 1 ml of 5% gum arabic aqueous solution, through the canula for the drug administration. The bile was collected at hourly intervals for 6 hours after the drug administration. Defining the volume of the bile secreted for one hour before the drug administration as 100%, the volume secreted at hourly intervals after the drug administration was expressed in %, as shown in Table 2.
# The mean volume secreted for one hour before the drug administration was 1798 μl.
# This suspension was used as a choleretic of the present invention. A male mongrel dog weighing 8.8 kg was fasted overnight and anesthetized by subcutaneous injection of 1.0 mg/kg of urethane and laparotomized. One canula was inserted into the common bile duct and directed to the liver for collection of the bile, and the other canula was also inserted into the duodenum for the drug administration. Subsequently, the cholecystic duct was ligated and the gallbladder bile was aspirated with an injection syringe. The operation was finished after suturing the peritoneum. The bile was collected for one hour from 30 minutes after the operation, and subsequently, 44 ml of the test drug prepared above (250 mg/kg) was given through the canula for the drug administration. The volume of the bile secreted for the first, second and third one hour after the drug administration were 2.2, 2.1 and 1.9 times larger, respectively, than that secreted for one hour before the drug administration.
# About 2.5 g of 9-propionyloxy-p-menth-1-en-8-ol was weighed accurately and suspended in 50 ml of 5% gum arabic aqueous solution. This suspension was used as a choleretic of the present invention. A male mongrel dog weighing 7.6 kg was fasted overnight and anesthetized by subcutaneous injection of 1.0 mg/kg of urethane and then laparotomized. One canula was inserted into the common bile duct and directed to the liver for collection of the bile, and the other canula into the duodenum for the drug administration. Subsequently, the cholecystic duct was ligated and the gallbladder bile was aspirated with an injection syringe. The operation was finished by suturing the peritoneum. The bile was collected for one hour from 30 minutes after the operation, and 50 ml (330 mg/kg) of the test drug prepared above was administered through the canula for the drug administration. The volume of the bile secreted for the first, second and third one hour after the drug administration was 3.2, 5.0 and 4.7 times larger, respectively, than that secreted for one hour before the drug administration.
# bile secretion [5] = assay: Bile secretion test in rats; assay type: in vivo, male Wistar rats; details: oral; for Bile volume secreted after administration: rat, volume in 1 h before administration = 100%; for Volume of bile secreted relative to one hour before administration: rats, 250 mg/kg
# Procedure: Male Wistar rats weighing 200-210 g were fasted overnight and laparotomized under urethane anesthesia(Subcutaneous injection at a dose of 1.5 g/kg). A polyethylene tube was inserted into the common bile duct. The bile was collected for one hour from 30 minutes after the operation. Subsequently, the animals were given orally the test drugs, each 50 mg of which was suspended in 1 ml of 5% gum arabic aqueous solution. The bile was collected for 5 hours after the drug administration. The volume of the bile secreted at hourly intervals after the drug administration was expressed in %, defining the volume secreted for one hour before the drug administration as 100%, as shown in Table 1.
# About 500 mg of p-menth-1-ene-8,9-diol were weighed accurately, and suspended in 10 ml of 5% gum arabic aqueous solution. […] Male rats of Wistar strain weighing 200 g were fasted overnight, anesthetized by subcutanous injection of 0.3 g of urethane and laparotomized. A polyethylene tube was inserted into the common bile duct. The bile was collected for one hour from 30 minutes after the operation. […]
# About 500 mg of 9-acetoxy-p-menth-1-en-8-ol was weighed accurately and suspended in 10ml of 5% gum arabic aqueous solution. […] Male rats of Wistar strain weighing about 210 g were fasted overnight and anesthetized by subcutaneous injection of 0.32 g of urethane and then laparotomized. A polyethylene tube was inserted into the common bile duct, and the bile secreted through the duct was collected for one hour from 30 minutes after the operation. Subsequently, the choleretic of the present invention was administered orally in a volume of 1.05 ml (250 mg/kg).
compound,measurement,setting,value
"CC(=O)OCC(C)(O)C1CC=C(C)CC1 (stereo not drawn) [9-Acetoxy-p-menth-1-en-8-ol, 9-acetoxy-p-menth-1-en-8-ol]",LD50 at 72 h,[1],8300 mg/kg
same,Sleeping time,[2],18.1 ± 1.5 min
same,LD50 at 72 h,[3],1000 to 2000 mg/kg
same,Bile volume secreted after administration,bile secretion [4]; 0-1 hr,395%
same,Bile volume secreted after administration,bile secretion [4]; 1-2 hr,457%
same,Bile volume secreted after administration,bile secretion [4]; 2-3 hr,534%
same,Bile volume secreted after administration,bile secretion [4]; 3-4 hr,464%
same,Bile volume secreted after administration,bile secretion [4]; 4-5 hr,277%
same,Bile volume secreted after administration,bile secretion [4]; 5-6 hr,157%
same,Bile volume secreted after administration,"bile secretion [5]; 100 mg/kg, 0-1 hr",125%
same,Bile volume secreted after administration,"bile secretion [5]; 100 mg/kg, 1-2 hr",109%
same,Bile volume secreted after administration,"bile secretion [5]; 100 mg/kg, 2-3 hr",96%
same,Bile volume secreted after administration,"bile secretion [5]; 100 mg/kg, 3-4 hr",82%
same,Bile volume secreted after administration,"bile secretion [5]; 100 mg/kg, 4-5 hr",75%
same,Bile volume secreted after administration,"bile secretion [5]; 310 mg/kg, 0-1 hr",196%
same,Bile volume secreted after administration,"bile secretion [5]; 310 mg/kg, 1-2 hr",172%
same,Bile volume secreted after administration,"bile secretion [5]; 310 mg/kg, 2-3 hr",145%
same,Bile volume secreted after administration,"bile secretion [5]; 310 mg/kg, 3-4 hr",124%
same,Bile volume secreted after administration,"bile secretion [5]; 310 mg/kg, 4-5 hr",114%
same,Bile volume secreted after administration,"bile secretion [5]; 930 mg/kg, 0-1 hr",218%
same,Bile volume secreted after administration,"bile secretion [5]; 930 mg/kg, 1-2 hr",203%
same,Bile volume secreted after administration,"bile secretion [5]; 930 mg/kg, 2-3 hr",172%
same,Bile volume secreted after administration,"bile secretion [5]; 930 mg/kg, 3-4 hr",154%
same,Bile volume secreted after administration,"bile secretion [5]; 930 mg/kg, 4-5 hr",130%
same,Volume of bile secreted relative to one hour before administration,bile secretion [5]; first hour,1.9 times
same,Volume of bile secreted relative to one hour before administration,bile secretion [5]; second hour,1.7 times
same,Volume of bile secreted relative to one hour before administration,bile secretion [5]; third hour,1.4 times
